Results: patent publication US8722027B2, “Method for preparing broussonetia kazinoki extract” (Amorepacific Corporation, priority 2010, dated 2014)
In brackets after ≈: the same amount, converted by molar mass. One block for each compound: values may come before it.

Assays:
B16 melanoma cells [1] = assay: Cytotoxicity measurement (MTT assay); type: cell-based, mouse
Method: (§1) B16 melanoma cells from C57BL/6J (black, a/a) mouse melanoma were purchased from the Cell Line Bank. The cells were cultured in DMEM medium containing 10% fetal bovine serum (LONZA), 50 U/ml of penicillin and 50 μg/ml of […] streptomycin under the conditions of 37° C. and 10% CO2.
B16 melanoma cells were seeded in a 96-well plate at a density of 1×10^4 cells/well and cultured for 1 day. The medium was replaced with fresh medium containing each of arbutin and various concentration of the composition of Preparation Example 6, and the cells were cultured again for 24 hours. 50 μl of an MIT solution obtained by dissolving MIT in cell culture medium at a concentration of 2 mg/ml was added to each well, and medium was added to each well to a final volume of 200 μl, after which the cells were incubated for 3-4 hours. The medium was removed, and the produced formazan crystals were dissolved in 150 μl of DMSO, after which the absorbance of the formazan solution was measured at 540 nm. The measured absorbance was expressed as a percentage relative to the control (not treated with the test material) to evaluate whether the test sample has cytotoxicity.

B16 melanoma cells [2] = assay: Inhibition of melanin production (α-MSH stimulated); type: cell-based, mouse; conditions: 100 μg/ml, 1 μM α-MSH
Method: as §1
B16 melanoma cells were seeded in a 24-well plate at a density of 4×10^4 cells/well and cultured overnight so as to adhere well to the plate. Then, medium containing 1 μM α-MSH for promoting melanin production and each concentration of the test sample of Preparation Example 6 or arbutin was added to each well. The plate was incubated for 72 hours, and then 200 μl of the cell culture medium was taken and the absorbance at 405 nm was measured. Based on the measurement, the amount of melanin was calculated. The calculated amount of melanin was expressed as a percentage relative to the control (not treated with the test material), and the results are shown in Table 9 below.

mushroom tyrosinase = assay: Inhibition of tyrosinase activity (L-tyrosine substrate); type: biochemical
Method: First, as test samples, arbutin and the composition of Preparation Example 6 were prepared at various concentrations, and an enzyme was added thereto in an amount corresponding to 10 units, after which 0.1M phosphate buffer was added thereto to a final volume of 100 μl. 100 μl of 0.03% L-tyrosine substrate solution was added thereto, and then immediately, the absorbance at 475 nm was measured. Then, the mixture was allowed to react at 37° C. for 10 minutes, after which it was placed on ice to stop the reaction, and the absorbance was measured again.

tyrosinase [3] = assay: Tyrosinase inhibitory effect (method of Test Example 1-2); type: biochemical; conditions: 50 mg sample in 100 ml ethanol, diluted 10-fold; 50 μl sample solution; 37° C., 10 minutes; absorbance 490 nm
Method: 50 mg of a sample to be evaluated for tyrosinase inhibitory activity was dissolved in ethanol to make 100 ml of a solution. 10 ml of the solution was taken, and ethanol was added thereto to make 100 ml of a sample solution. 500 μl of a substrate solution, 450 μl of purified water and 50 μl of the sample solution are added to and mixed with 500 μl of buffer, and 50 μl of an enzyme (tyrosinase) solution is added to the mixture. The resulting mixture is allowed to react at 37° C. for 10 minutes, and then immediately allowed to stand on ice for 5 minutes, and the absorbance at 490 nm is measured. The tyrosinase inhibitory effect of the sample is evaluated based on the absorbance of the sample compared to the absorbance of a blank sample.

tyrosinase [4] = molecular target: T1, tyrosinase (Homo sapiens, UniProt P14679); conditions: compared to kojic acid; known; cited from earlier work
T1 sequence (P14679 19-529): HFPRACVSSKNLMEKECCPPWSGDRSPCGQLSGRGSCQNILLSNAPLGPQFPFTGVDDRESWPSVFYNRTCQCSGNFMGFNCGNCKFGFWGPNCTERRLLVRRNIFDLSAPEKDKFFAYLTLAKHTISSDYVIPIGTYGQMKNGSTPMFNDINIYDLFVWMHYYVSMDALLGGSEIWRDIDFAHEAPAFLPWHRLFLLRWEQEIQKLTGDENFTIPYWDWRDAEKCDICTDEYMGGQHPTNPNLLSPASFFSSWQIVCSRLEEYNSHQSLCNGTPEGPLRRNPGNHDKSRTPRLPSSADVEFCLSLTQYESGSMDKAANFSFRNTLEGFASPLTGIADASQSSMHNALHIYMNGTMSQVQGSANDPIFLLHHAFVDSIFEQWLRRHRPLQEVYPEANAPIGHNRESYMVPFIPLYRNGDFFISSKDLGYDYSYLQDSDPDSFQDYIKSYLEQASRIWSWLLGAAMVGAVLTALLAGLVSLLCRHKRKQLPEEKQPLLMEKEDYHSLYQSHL

[5] = Partition coefficient in two-phase solvent system; type: physicochemical; conditions: hexane/ethyl acetate/methanol/water 5/5/5/2
Method: The partition coefficient of kazinol C was measured in the following manner First, 1 mg of the extract of Example 3 was placed in a 10-ml test tube, and 2 ml of each of the upper layer solution and lower layer solution of a two-phase solution system, which reached equilibrium, was added thereto, and the mixture was shaken intensively for 1 minute. After the two phases have reached equilibrium, 100 μl of each of the upper layer solution and the lower layer solution was taken, dried, dissolved in 1 ml of ethanol, and analyzed by HPLC. The value obtained by dividing the amount of kazinol C in the upper layer solution by the amount of kazinol C in the lower layer solution was determined as partition coefficient.

Inhibition (%) of tyrosinase activity (mushroom tyrosinase; 125 μg/ml): 38.1% | Inhibition (%) of tyrosinase activity (mushroom tyrosinase; 250 μg/ml): 56.5% | Inhibition (%) of tyrosinase activity (mushroom tyrosinase; 500 μg/ml): 87.7% | IC50 (μg/ml), tyrosinase activity (mushroom tyrosinase; mushroom tyrosinase 10 units, 37° C., 10 minutes): 209.6 µg/mL (≈ 770 µM)
SMILES: OC[C@H]1O[C@@H](Oc2ccc(O)cc2)[C@H](O)[C@@H](O)[C@@H]1O [Arbutin, arbutin]
% relative to control (MTT absorbance) (B16 melanoma cells [1]; 100 μg/ml, 24 hours): 95.1 ± 4.8% | Toxicity (%) (B16 melanoma cells [1]; 100 μg/ml, 24 hours): 4.9% | Cytotoxicity (in words) (B16 melanoma cells [1]; at a concentration of 100 μg/ml): no cytotoxicity | Inhibition (%) of melanin production (B16 melanoma cells [2]; 72 hours): 33.7% | Melanin % relative to control (B16 melanoma cells [2]; 72 hours): 66.3 ± 4.7% | inhibition at 100 µg/mL (B16 melanoma cells [2]; Mus musculus, B16, 72 h): 21.2%

Tyrosinase inhibitory effect (%) (tyrosinase [3]): 80%
SMILES: O=c1cc(CO)occ1O [Control, kojic acid]

Partition coefficient (upper layer / lower layer) [5]: 0.997
SMILES: C=CC(C)(C)c1cc(CCCc2cc(O)c(O)c(CC=C(C)C)c2CC=C(C)C)c(O)cc1O [kazinol C]
Tyrosinase inhibitory effect (in words) (tyrosinase [4]): excellent tyrosinase inhibitory effect compared to kojic acid
